IC50 data for 21 molecules are collected here from patent publication US20260327193A1, “INHIBITORS OF PLASMA KALLIKREIN” (Rezolute, Inc., priority 2022, published 2026).

In assay [1] the target is T1, Plasma Kallikrein (Homo sapiens, UniProt P03952). Nature of the assay: Plasma kallikrein activity in pooled human plasma. Also on record: Plasma Kallikrein activity was also measured in pooled human plasma; from tissue; host or cells: pooled human plasma. The class given is biochemical. The following applies: Z-FR-AMC substrate, activated with 10% Actin FS solution, 10 minutes, read-out: Pooled Human Plasma PKal IC50. As for the experimental part:
(§1) Plasma kallikrein protease inhibition assay. Two methods for determining the IC50 of a test compound against Plasma Kallikrein are provided.
Second, Plasma Kallikrein activity was also measured in pooled human plasma. First, a 10% Actin FS solution was prepared in assay buffer. Each test compound was dissolved in DMSO and delivered to the reaction mixture along with Z-FR-AMC substrate and pooled human plasma. The multi-well reaction plate was incubated for five minutes at room temperature. To initiate the reaction, the 10% Actin FS solution was added to each well, and kinetic measurements were taken at Ex/Em at 355/460 nm. The fluorescence signal was recorded every 30 seconds for a total of 10 minutes.

Assay [2] has as its target T1, Plasma Kallikrein. Put plainly: Plasma kallikrein protease inhibition assay, purified enzyme. In kind it is biochemical. Also on record: NS0-derived Gly20-Ala638, with a C-terminal 60-His tag; 60-His (so in the source) (C); purchased R&D Systems 2497-SE; host or cells: Mouse myeloma cell line, NS0. The following applies: 10 μM Z-FR-AMC substrate, 20-minute pre-incubation, pH 8.0/8.5, room temperature, read-out: Purified PKal IC50. As for the experimental part:
as §1
In the first method was used a reaction buffer composed of 25 mM Tris-HCl (pH 8.0), 100 mM NaCl (pH 8.5), 0.01% Brij35, and 1% DMSO (final). The enzyme used was Plasma Kallikrein (R&D Systems Cat #2497-SE; Recombinant Human Plasma Kallikrein, expressed in Mouse myeloma cell line, NS0-derived Gly20-Ala638, with a C-terminal 60-His tag. MW=70 kDa).
The enzyme was activated by dilution to 200 μg/mL in activation buffer (100 mM Tris, 10 mM CaCl2, 150 mM NaCl, pH 7.5 (TCN), and then combined with an equal volume of 20 μg/mL thermolysin to form a reaction buffer. Each test compound was then dissolved in DMSO and delivered into the reaction buffer. The reaction was initiated by delivering a substrate solution containing 10 μM Z-FR-AMC (Enzo Cat #P-139; AMC: 7-Amino-4-methylcoumarin) into the reaction well after a 20-minute pre-incubation period.
Measurement was conducted with En Vision (PE) with excitation and emission wavelengths of 355 nm and 460 nm, respectively. […]. The enzyme activities were monitored every 5 minutes as a time-course measurement of the increase in signal from fluorescently labeled peptide substrate for 120 minutes at room temperature.
Data was analyzed by taking slope*(signal/time) of the linear portion of measurements. Slope was calculated using Excel, and curve fits were performed using Prism software.

T1 sequence (P03952 391-638 limits assumed): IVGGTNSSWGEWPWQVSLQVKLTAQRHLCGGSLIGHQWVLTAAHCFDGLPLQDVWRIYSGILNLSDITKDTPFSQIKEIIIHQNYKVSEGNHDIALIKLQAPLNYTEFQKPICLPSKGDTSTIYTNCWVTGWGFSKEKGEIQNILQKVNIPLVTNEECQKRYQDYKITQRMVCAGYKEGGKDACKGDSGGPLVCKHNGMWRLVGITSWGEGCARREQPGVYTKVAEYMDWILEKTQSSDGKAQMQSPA
T1 sequence (P03952 20-390 partner limits assumed): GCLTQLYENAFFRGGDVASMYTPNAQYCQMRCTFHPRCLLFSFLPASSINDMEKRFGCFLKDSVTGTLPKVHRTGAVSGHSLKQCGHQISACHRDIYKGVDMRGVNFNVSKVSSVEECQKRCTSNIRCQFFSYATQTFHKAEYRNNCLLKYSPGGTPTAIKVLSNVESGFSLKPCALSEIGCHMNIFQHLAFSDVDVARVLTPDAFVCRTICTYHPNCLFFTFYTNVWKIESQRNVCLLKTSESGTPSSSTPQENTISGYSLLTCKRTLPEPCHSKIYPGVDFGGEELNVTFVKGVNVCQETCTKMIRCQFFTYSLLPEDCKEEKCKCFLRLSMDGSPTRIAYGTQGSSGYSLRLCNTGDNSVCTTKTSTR

Consider `N=C(N)c1ccc(CNC(=O)c2cnn(Cc3ccc(CO)cc3)c2)cc1` [Example 2, N-(4-carbamimidoylbenzyl)-1-(4-(hydroxymethyl)benzyl)-1H-pyrazole-4-carboxamide], for which the results for the IC50 at Plasma Kallikrein [1] and on Plasma Kallikrein [2] were less than 100 nM and 1 to 10 nM, respectively.
Consider `CC(C#N)c1ccc(Cn2cc(C(=O)NCc3ccc(C(=N)N)cc3)cn2)cc1` (stereo not drawn) [Example 5, N-(4-carbamimidoylbenzyl)-1-(4-(1-cyanoethyl)benzyl)-1H-pyrazole-4-carboxamide], for which the IC50 – broadly, the midpoint of a concentration-inhibition curve – on Plasma Kallikrein [2] lay within 1 to 10 nM.
Turning to `N#CCc1ccc(Cc2cc(C(=O)NCc3ccc(C(=N)N)cc3)on2)cc1` [Example 10, N-(4-carbamimidoylbenzyl)-3-(4-(cyanomethyl)benzyl) isoxazole-5-carboxamide], the IC50 at Plasma Kallikrein [2] was 1 to 10 nM.
Same read-out and setting: the value for `N#CCc1ccc(Cc2cc(C(=O)NCc3ccc(C(=N)N)cc3)sn2)cc1` [Example 11] was 1 to 10 nM.
Take `N#Cc1ccc(-c2ccc(Cn3cc(C(=O)NCc4ccc(C(=N)N)cc4)cn3)cc2)cc1` [Example 13, N-(4-carbamimidoylbenzyl)-1-((4′-cyano-[1,1′-biphenyl]-4-yl)methyl)-1H-pyrazole-4-carboxamide]: the IC50 is less than 100 nM on Plasma Kallikrein [1] and less than 1 nM at Plasma Kallikrein [2].
Regarding `N#Cc1ccc(Cc2ccc(Cn3cc(C(=O)NCc4ccc(C(=N)N)cc4)cn3)cc2)cc1` [Example 14, N-(4-carbamimidoylbenzyl)-1-(4-(4-cyanobenzyl)benzyl)-1H-pyrazole-4-carboxamide], the IC50 on Plasma Kallikrein [1] is 100 to 1000 nM; on Plasma Kallikrein [2], less than 1 nM.
For `N#Cc1ccn(-c2ccc(Cn3cc(C(=O)NCc4ccc(C(=N)N)cc4)cn3)cc2)c1` [Example 25, N-(4-carbamimidoylbenzyl)-1-(4-(3-cyano-1H-pyrrol-1-yl)benzyl)-1H-pyrazole-4-carboxamide], in that order: less than 100 nM and less than 1 nM.
The matching figures for `CC(C)(C#N)c1ccc(Cn2cc(C(=O)NCc3cc(F)c(C(=N)N)c(F)c3)cn2)cc1` [Example 44, N-(4-carbamimidoyl-3,5-difluorobenzyl)-1-(4-(2-cyanopropan-2-yl)benzyl)-1H-pyrazole-4-carboxamide]: greater than 1000 nM and greater than 100 nM.
As for `COCCc1cccc(Cn2cc(C(=O)NCc3ccc(C(=N)N)cc3)cn2)c1` [Example 69, N-(4-carbamimidoylbenzyl)-1-(3-(2-methoxyethyl)benzyl)-1H-pyrazole-4-carboxamide], the figures for the IC50 on Plasma Kallikrein [1] and at Plasma Kallikrein [2] were less than 100 nM and 1 to 10 nM, respectively.
For `N#CCc1ccccc1Cn1cc(C(=O)NCc2ccc(C(=N)N)cc2)cn1` [Example 70, N-(4-carbamimidoylbenzyl)-1-(2-(cyanomethyl)benzyl)-1H-pyrazole-4-carboxamide], in that order: 100 to 1000 nM and 10 to 100 nM.
Take `COCc1ccc(Cn2cc(C(=O)NCc3ccc(C(=N)N)cc3)cn2)cc1` [Example 71, N-(4-carbamimidoylbenzyl)-1-(4-(methoxymethyl)benzyl)-1H-pyrazole-4-carboxamide]: the IC50 on Plasma Kallikrein [1] is less than 100 nM; on Plasma Kallikrein [2] it was less than 1 nM.
For `N#CCc1ccc(Cn2cc(C(=O)NCc3ccc(C(=N)N)c(F)c3)cn2)cc1` [Example 72, N-(4-carbamimidoyl-3-fluorobenzyl)-1-(4-(cyanomethyl)benzyl)-1H-pyrazole-4-carboxamide], in that order: 100 to 1000 nM and 10 to 100 nM.
For `COCCc1ccc(Cn2cc(C(=O)NCc3ccc(C(=N)N)c(F)c3)cn2)cc1` [Example 73, N-(4-carbamimidoyl-3-fluorobenzyl)-1-(4-(2-methoxyethyl)benzyl)-1H-pyrazole-4-carboxamide], the IC50 at Plasma Kallikrein [1] is less than 100 nM; at Plasma Kallikrein [2], 1 to 10 nM.
For `CNC(=O)Cc1ccc(Cn2cc(C(=O)NCc3ccc(C(=N)N)c(F)c3)cn2)cc1` [Example 74, N-(4-carbamimidoyl-3-fluorobenzyl)-1-(4-(2-(methylamino)-2-oxoethyl)benzyl)-1H-pyrazole-4-carboxamide], in that order: 100 to 1000 nM and 1 to 10 nM.
The matching figures for `COCc1c(C(=O)NCc2ccc(C(=N)N)c(F)c2)cnn1Cc1ccc(CC#N)cc1` [Example 75, N-(4-carbamimidoyl-3-fluorobenzyl)-1-(4-(cyanomethyl)benzyl)-5-(methoxymethyl)-1H-pyrazole-4-carboxamide]: greater than 1000 nM and greater than 100 nM.
For `Cc1c(C(=O)NCc2ccc(C(=N)N)cc2)cnn1Cc1ccc(C(C)(C)C#N)cc1` [Example 81, N-(4-carbamimidoylbenzyl)-1-(4-(2-cyanopropan-2-yl)benzyl)-5-methyl-1H-pyrazole-4-carboxamide], in that order: less than 100 nM and less than 1 nM.
With `COCc1c(C(=O)NCc2ccc(C(=N)N)cc2)cnn1Cc1ccc(C(C)(C)C#N)cc1` [Example 82, N-(4-carbamimidoylbenzyl)-1-(4-(2-cyanopropan-2-yl)benzyl)-5-(methoxymethyl)-1H-pyrazole-4-carboxamide], the IC50 is less than 100 nM at Plasma Kallikrein [1] and 10 to 100 nM on Plasma Kallikrein [2].
The matching figures for `CC(C)(C#N)c1ccc(Cn2ncc(C(=O)NCc3ccc(C(=N)N)cc3)c2C2CC2)cc1` [Example 83, N-(4-carbamimidoylbenzyl)-1-(4-(2-cyanopropan-2-yl)benzyl)-5-cyclopropyl-1H-pyrazole-4-carboxamide]: 100 to 1000 nM and 10 to 100 nM.
Consider `CCCc1c(C(=O)NCc2ccc(C(=N)N)cc2)ncn1Cc1ccc(C(C)(C)C#N)cc1` [Example 84, N-(4-carbamimidoylbenzyl)-1-(4-(2-cyanopropan-2-yl)benzyl)-5-propyl-1H-imidazole-4-carboxamide], for which the IC50 on Plasma Kallikrein [1] was greater than 1000 nM; at Plasma Kallikrein [2] it was greater than 100 nM.
Turning to `COCc1c(C(=O)NCc2ccc(C(=N)N)cc2)cnn1Cc1ccc(CC#N)cc1` [Example 85, N-(4-carbamimidoylbenzyl)-1-(4-(cyanomethyl)benzyl)-5-(methoxymethyl)-1H-pyrazole-4-carboxamide], the IC50 on Plasma Kallikrein [1] was 100 to 1000 nM; at Plasma Kallikrein [2] it was 10 to 100 nM.
The matching figures for `N#CCc1ccc(Cn2ncc(C(=O)NCc3ccc(C(=N)N)cc3)c2C2CC2)cc1` [Example 86, N-(4-carbamimidoylbenzyl)-1-(4-(cyanomethyl)benzyl)-5-cyclopropyl-1H-pyrazole-4-carboxamide]: 100 to 1000 nM and 10 to 100 nM.
